Reference: PMC12560828, “Chemical structure drives developmental toxicity of alkyl-substituted naphthalenes in zebrafish” (Environment international, 2025)

Key:
[1] = tested on: early life stage zebrafish (Danio rerio) embryos; assay: Developmental toxicity morphology screen, sealed rotating vial exposure; assay type: in vivo; design: bmd, MO24 / bmd, MORT / bmd, ANY_ / bmd, AXIS / bmd, CRAN / bmd, EDEM / bmd, LTRK / bmd, MUSC / bmdL, ANY_ / bmdU, ANY_ / bmdL, AXIS / bmdU, AXIS / bmdL, CRAN / bmdU, CRAN / bmdL, EDEM / bmdU, EDEM / bmdL, LTRK / bmdU, LTRK / bmdL, MO24 / bmdU, MO24 / bmdL, MORT / bmdU, MORT: unit not given here; conditions: for BMC50 Any effect: Fig. 2 heatmap, exposure 6-24 hpf in vials, summary of all endpoints; for any effect BMD50: SI-T5; for bmd, MO24: endpoint MO24; for bmd, MORT: endpoint MORT; for bmd, ANY_: morphology endpoint ANY_ (any effect)
Protocol: (§1) When embryos were 6 hpf they were bleached in groups of 1000 or less to limit bacterial growth in sealed vials. Embryos were placed in a strainer for transfer between solutions in 500 mL containers. […] Pools of eight embryos were placed into 2 mL clear glass screw cap exposure vials with polyvinyl-faced pulp liner (Avantar Radnor, PA, United States) using a glass Pasteur pipette. Excess EM was removed, and 2 mL of fresh EM was immediately added. A total of 10 uL of 200x working stock (in DMSO) was added to each vial, then immediately capped and inverted three times to mix. […] Vials were loaded into a custom 3D printed vial holder for slow end-over-end rotation in a dark 28 °C incubator overnight. […] At 24 hpf, embryos were removed from exposure vials and singulated into 96-well plates loaded with 100 μL chemical-free EM. Each exposure vial group was maintained in plate columns. After loading into 96-well plates, embryos were assessed for 24-hour mortality. For the remainder of the exposure, plates were kept stationary at 28 °C in the dark, until 120 hpf when morphology screening and the larval photo motor response (LPR) assay were conducted, section 2.3.2 and section 2.3.3, respectively.
Each treatment group was replicated over four vials, resulting in 32 embryos per treatment, split over two replicate 96-well plates per chemical. […] All reported concentrations were nominal water concentrations and are included in SI-T4.
At 24 hpf embryos were assessed for mortality (MO24). At 120 hpf embryos were assessed for abnormality in […] morphological endpoints: mortality (MORT), edemas (EDEM), bent axis (AXIS), touch response (TCHR), craniofacial (CRAN), muscular/cardiovascular (MUSC), lower trunk (LRTK), brain (BRAN), skin (SKIN), and notochord malformations (NC). Morphological assessments were made by a team of three to four individuals. The team was blinded to the identity, plate layout, and concentrations of the chemicals, thereby minimizing bias in morphological screening assessment. To ensure the assessments were consistent, concentration–response reproducibility of a parathion ethyl quality control plate was performed along with each experimental exposure set up. Details of all measured endpoints can be found at Developmental toxicity zebrafish phenotype atlas. […] Each endpoint was scored as a binary presence/absence and scores were compiled into an “Any effect” endpoint, the presence of abnormality in any individual endpoint.
The Any effect percent was used to calculate the BMC50, 50 % change relative to the background for each endpoint and chemical. All values were reported as the nominal exposure concentration.

[2] = tested on: zebrafish larvae, 120 hpf; assay: Larval photomotor response (LPR) assay after vial exposure; assay type: in vivo, Danio rerio; conditions: for fold_change: LPR
Protocol: as §1
Each treatment group was replicated over four vials, resulting in 32 embryos per treatment, split over two replicate 96-well plates per chemical. […] Vial groups of plated larvae were tracked to assess the impact of the vial on the results. All reported concentrations were nominal water concentrations and are included in SI-T4.
The LPR assay was conducted at 120 hpf. […] Larval movement was tracked throughout minutes 6–24. Animals dead or morphologically abnormal were excluded from the analysis, and if more than 30 % of the wells in a treatment group were excluded, the treatment was removed.
Movement values were binned into 6s intervals, log normalized and used to calculate area under the curve (AUC). AUC values from the first cycle after calibration were used to calculate the LEL for each period (light and dark).

[3] = period dark, round 1, conc 3.125
[4] = period dark, round 1, conc 6.25
[5] = period dark, round 1, conc 12.5
[6] = period dark, round 2, conc 37.5
[7] = period light, round 1, conc 3.125
[8] = period light, round 1, conc 6.25
[9] = period light, round 1, conc 12.5
[10] = period light, round 2, conc 37.5

SMILES	BMC50 MO24 (mortality at 24 hpf) ([1]; Fig. 2, nominal concentration) [µM]	BMC50 MORT (mortality at 120 hpf) ([1]; Fig. 2, nominal concentration) [µM]	BMC50 Any effect ([1]; nominal concentration) [µM]	any effect BMD50 [1] [µM]	bmd, MO24 ([1]; benchmark dose)	bmd, MORT ([1]; benchmark dose)	bmd, ANY_ ([1]; benchmark dose)	fold_change [2, 3]	fold_change [2, 4]	fold_change [2, 5]	fold_change ([2]; period dark, round 1, conc 25)	fold_change ([2]; period dark, round 2, conc 30)	fold_change [2, 6]	fold_change [2, 7]	fold_change [2, 8]	fold_change [2, 9]	fold_change ([2]; period light, round 1, conc 25)	fold_change ([2]; period light, round 2, conc 30)	fold_change [2, 10]	fold_change ([2]; period dark, round 1, conc 50)	other results
Cc1cccc2cccc(C)c12 [1,8-dimethylnaphthalene]	49.8	48.7	41.2	41.15	49.8371	48.678	41.1508	-0.1333	0.3857	-0.2522	-0.4588	-0.4155	-0.7493	0.4922	0.5326	-0.3791	0.4908	-0.235	-0.3043	–	fold_change ([2]; period dark, round 2, conc 45): -0.6849; fold_change ([2]; period light, round 2, conc 45): 1.248
CCc1cccc2ccccc12 [1-ethylnaphthalene]	44.6	41.9	33.7	33.7	44.6047	41.9285	33.6977	0.05526	0.06428	-0.02558	-0.1629	-0.2464	-0.2326	-0.3674	-0.401	-0.744	0.4136	0.3971	-0.206	–	BMC50 AXIS (curved or bent body axis at 120 hpf) ([1]; Fig. 2, nominal concentration): 43.9 µM; BMC50 CRAN (craniofacial malformation at 120 hpf) ([1]; Fig. 2, nominal concentration): 46.3 µM; bmd, AXIS ([1]; benchmark dose, morphology endpoint AXIS): 43.8887; bmd, CRAN ([1]; benchmark dose, morphology endpoint CRAN): 46.3281
Cc1cccc2ccccc12 [1-methylnaphthalene]	–	–	–	–	–	–	–	-0.2838	-0.4018	-0.5302	-0.8382	–	–	0.7433	0.645	0.113	0.4697	–	–	-0.8713	morphological effects (BMC50 for any morphological endpoint) ([1]; 0-50 μM, result in words): no morphological BMC50 values; LPR behavioral effect ([2]; 120 hpf, light/dark periods, result in words): active; fold_change ([2]; period light, round 1, conc 50): 0.667
Cc1cc2ccccc2cc1C [2,3-dimethylnaphthalene]	–	–	46.6	46.56	–	–	46.5587	-0.07813	-0.1051	-0.1104	-0.9852	–	–	-0.3145	-0.003485	-1.16	-0.6826	–	–	-1.366	fold_change ([2]; period light, round 1, conc 50): -0.533
